The values that follow come from patent US20170042780A1, “DENTIFRICE COMPOSITION WITH GUM BLEEDING RELIEF EFFICACY” (COLGATE-PALMOLIVE COMPANY, priority 2015, published 2017).

For this experiment, the system named is experimental animal plasma. The experiment is described as follows: In-vitro Prothrombin Time (PT) Test. The following applies: for Prothrombin Time: coagulant ingredient 1 weight % in water, 0.05 mL sample + 0.1 mL plasma, 37° C., thromboplastin added, mean of 10 repeats. It is filed as biochemical. How it is done: An In-vitro Prothrombin Time (PT) Test has been designed to test the coagulant efficacy (see Luz, L. et at., International Journal of Biological Macromolecules, 58 (2013), p. 31-36). […] The experimental methodology used was: […] When testing the “Toothpastes” in Table 2, below, a toothpaste slurry was prepared by mixing 1 part of the toothpaste under test with 2 parts DI water (all parts being parts by weight); then the supernatant was obtained by centrifuging the slurry for 20 mins at 8000 rpm. 0.1 mL of experimental animal plasma was placed in each testing tube (animal blood samples used in the experiment were waste products, and the animals were otherwise used for food). 0.05 mL of the test samples (0.05 mL of DI water or saline solution in control group) were added to separate tubes and mixed with the plasma. The mixtures were then heated in a water bath at 37° C. for 3 min, then 0.2 mL of thromboplastin (which had been preheated to 37° C.) was added to each testing tube and the contents mixed. A stopwatch was started immediately upon adding the thromboplastin to record the coagulation time (Prothrombin Time).

For the compound `NCc1ccc(C(=O)O)cc1` [4-(aminomethyl)benzoic acid], the “Prothrombin Time” value was found to be 11.14 s. Also, the “clotting time compared with the controls (DI water and saline solution)” value (ingredient 1 weight % in water) is on record as “significantly lower clotting time than the controls”. Besides, under “ingredients 1 weight % in water”, the “difference in clotting time between tranexamic acid and 4-(aminomethyl) benzoic acid” value is given as “No significant difference”.

On to `NC[C@H]1CC[C@H](C(=O)O)CC1` [Tranexamic acid, tranexamic acid, reference compound], for which the “Prothrombin Time” value is reported as 11.66 s.
